Columns and labels:
[1] = system: cytotoxicity of vincristine; details: J. Antibiotics vol XLIII No. 8, 1018-1020; cited from earlier work
[2] = target: PAI-1 (Homo sapiens, UniProt P05121); experiment: PAI-1 inhibition in the S2251 chromogenic substrate assay (PAI functional assay); type: biochemical; details: for inhibition at 20 µM / inhibition at 50 µM / inhibition at 100 µM: read-out: INHIBITION OF PAI-1 (degree of inhibition); for INHIBITION OF PAI-1 (degree of inhibition): unit assumed; for IC50: PAI-1, S2251 assay
Method in brief: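 Compound preincubated with PAI-1, then added to a tPA/plasminogen system; residual tPA activity converts plasminogen to plasmin.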

Chain of PAI-1 (P05121 24-402): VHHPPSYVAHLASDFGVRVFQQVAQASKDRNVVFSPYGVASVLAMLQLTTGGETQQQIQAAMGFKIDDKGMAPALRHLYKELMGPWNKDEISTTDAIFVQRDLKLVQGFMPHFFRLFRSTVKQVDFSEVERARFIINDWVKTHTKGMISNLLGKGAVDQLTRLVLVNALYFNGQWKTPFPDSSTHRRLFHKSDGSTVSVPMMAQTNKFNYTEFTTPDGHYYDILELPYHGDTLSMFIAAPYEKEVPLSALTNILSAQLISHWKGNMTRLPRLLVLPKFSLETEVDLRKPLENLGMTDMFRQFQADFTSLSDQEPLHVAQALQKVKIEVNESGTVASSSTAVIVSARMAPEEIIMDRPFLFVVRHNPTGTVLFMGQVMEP

Structure (SMILES): Cn1c(=O)/c(=C/c2ccccc2)[nH]c(=O)/c1=C/c1ccccc1 [piperafizine A]
- utility as potentiators of the cytotoxicity of vincristine [1]: potentiators of the cytotoxicity of vincristine

Structure (SMILES): O=c1[nH]/c(=C\c2ccccc2)c(=O)[nH]/c1=C\c1ccccc1 [piperafizine B]
- utility as potentiators of the cytotoxicity of vincristine [1]: potentiators of the cytotoxicity of vincristine

Structure (SMILES): CN(C)CCCOc1ccc(/C=c2\[nH]c(=O)/c(=C/c3cccnc3)[nH]c2=O)cc1 [Compound 5028, (3Z,6Z)-6-(4-(3-Dimethylaminopropoxy)benzylidene)-3-(3-pyridylmethylene)-2,5-piperazinedione]
- inhibition at 20 µM ([2]; 20 μM, Table 1, second part): 4%
- inhibition at 50 µM ([2]; Table 1, second part): 4%
- inhibition at 100 µM ([2]; 100 μM, Table 1, second part): 11%

Structure (SMILES): O=c1[nH]/c(=C\c2cc(Cl)sc2Cl)c(=O)[nH]/c1=C\c1ccccc1 [Compound 5075, (3Z,6Z)-3-(2,5-Dichloro-3-thenylidene)-6-benzylidene-2,5-piperazinedione]
- inhibition at 20 µM ([2]; 20 μM, Table 1, second part): 52%
- inhibition at 50 µM ([2]; Table 1, second part): 88%
- inhibition at 100 µM ([2]; 100 μM, Table 1, second part): 88%

Structure (SMILES): CN(C)CCCOc1ccc(/C=c2\[nH]c(=O)/c(=C/c3cccc4ccccc34)[nH]c2=O)cc1 [Compound 5205]
- INHIBITION OF PAI-1 (degree of inhibition) ([2]; 20 μM, Table 1, second part): 33%
- INHIBITION OF PAI-1 (degree of inhibition) ([2]; 100 μM, Table 1, second part): 56%
- IC50 ([2]; Table 1, second part): 100 µM

Structure (SMILES): O=c1[nH]/c(=C\c2ccc(OCCn3ccnc3)cc2)c(=O)[nH]/c1=C\c1ccccc1 [Compound 5055, (3Z,6Z)-6-Benzylidene-3-(4-(2-(1-imidazolyl)ethoxy)benzylidene)2,5-piperazinedione]
- inhibition at 20 µM ([2]; 20 μM, Table 1, second part): 70%
- inhibition at 50 µM ([2]; Table 1, second part): 69%
- inhibition at 100 µM ([2]; 100 μM, Table 1, second part): 69%

Structure (SMILES): CN(C)CCCOc1ccc(/C=c2\[nH]c(=O)/c(=C/c3ccc4ccccc4c3)[nH]c2=O)cc1 [Compound 5188, (3Z,6Z)-6-(4-(3-Dimethylaminopropoxy)benzylidene)-3-(2-Naphthylmethylene)-2,5-piperazinedione]
- inhibition at 20 µM ([2]; 20 μM, Table 1, second part): 94%
- inhibition at 100 µM ([2]; 100 μM, Table 1, second part): 90%
- IC50 ([2]; Table 1, second part): 3.5 µM

Structure (SMILES): COc1cc2c(cc1OC)CN(CCc1ccc(NC(=O)c3ccc(/C=c4\[nH]c(=O)/c(=C/c5ccccc5)[nH]c4=O)cc3)cc1)CC2 [Compound 5393]
- inhibition at 20 µM ([2]; 20 μM, Table 1, second part): 76%
- IC50 ([2]; Table 1, second part): 14 µM

Structure (SMILES): COc1ccc(/C=c2\[nH]c(=O)/c(=C/c3cccn3C(=O)OC(C)(C)C)[nH]c2=O)cc1 [Compound 1507, (3Z,6Z)-3-(4-Methoxybenzylidene)-6-(2-(1-tertbutoxycarbonyl)pyrrolyl)methylene-2,5-piperazinedione]
- INHIBITION OF PAI-1 (degree of inhibition) ([2]; 6.25 μm, Table 1, first part): 1%
- INHIBITION OF PAI-1 (degree of inhibition) ([2]; 12.5 μm, Table 1, first part): 1%
- INHIBITION OF PAI-1 (degree of inhibition) ([2]; 25 μm, Table 1, first part): 45%
- INHIBITION OF PAI-1 (degree of inhibition) ([2]; 50 μm, Table 1, first part): 62%
- INHIBITION OF PAI-1 (degree of inhibition) ([2]; 100 μm, Table 1, first part): 78%
- IC50 ([2]; Table 2): 25 to 50 µM

Structure (SMILES): CC(=O)Nc1ccc(/C=c2\[nH]c(=O)/c(=C/C3CCCCC3)[nH]c2=O)cc1 [Compound 1672]
- INHIBITION OF PAI-1 (degree of inhibition) ([2]; 6.25 μm, Table 1, first part): 1%
- INHIBITION OF PAI-1 (degree of inhibition) ([2]; 12.5 μm, Table 1, first part): 4%
- INHIBITION OF PAI-1 (degree of inhibition) ([2]; 25 μm, Table 1, first part): 13%
- INHIBITION OF PAI-1 (degree of inhibition) ([2]; 50 μm, Table 1, first part): 44%
- INHIBITION OF PAI-1 (degree of inhibition) ([2]; 100 μm, Table 1, first part): 70%
- IC50 ([2]; Table 2): 50 to 100 µM

Structure (SMILES): O=c1[nH]/c(=C\c2ccc(OCC(O)CN3CCOCC3)cc2)c(=O)[nH]/c1=C\c1ccccc1 (stereo not shown) [Compound 5040, (3Z,6Z)-6-Benzylidene-3-(4-(2-hydroxy-3-morpholinopropoxy)benzylidene)-2,5-piperazinedione]
- inhibition at 20 µM ([2]; 20 μM, Table 1, second part): 0%
- inhibition at 50 µM ([2]; Table 1, second part): 1%
- inhibition at 100 µM ([2]; 100 μM, Table 1, second part): 0%

Structure (SMILES): O=c1[nH]/c(=C\c2ccc3c(c2)OCO3)c(=O)[nH]/c1=C\c1ccccc1 [Compound 1808, (3Z,6Z)-3-Benzylidene-6-(3,4-methylenedioxybenzylidene)-2,5-piperazinedione]
- INHIBITION OF PAI-1 (degree of inhibition) ([2]; 6.25 μm, Table 1, first part): 1%
- INHIBITION OF PAI-1 (degree of inhibition) ([2]; 12.5 μm, Table 1, first part): 2%
- INHIBITION OF PAI-1 (degree of inhibition) ([2]; 25 μm, Table 1, first part): 73%
- INHIBITION OF PAI-1 (degree of inhibition) ([2]; 50 μm, Table 1, first part): 48%
- INHIBITION OF PAI-1 (degree of inhibition) ([2]; 100 μm, Table 1, first part): 76%

Structure (SMILES): CN(C)CCOCc1ccc(/C=c2\[nH]c(=O)/c(=C/c3ccoc3)[nH]c2=O)cc1 [Compound 5077, (3Z,6Z)-6-(4-(2-Dimethylaminoethoxymethyl)benzylidene)-3-(3-furylmethylene)-2,5-piperazinedione]
- inhibition at 20 µM ([2]; 20 μM, Table 1, second part): 42%
- inhibition at 50 µM ([2]; Table 1, second part): 46%
- inhibition at 100 µM ([2]; 100 μM, Table 1, second part): 34%

Structure (SMILES): CN(C)CCCOc1ccc(/C=c2\[nH]c(=O)/c(=C/c3ccc(CN(C)C)cc3)[nH]c2=O)cc1 [Compound 5023]
- inhibition at 20 µM ([2]; 20 μM, Table 1, second part): 1%

Structure (SMILES): CC(C)(C)OC(=O)n1cc(/C=c2\[nH]c(=O)/c(=C/c3cccs3)[nH]c2=O)c2ccccc21 [Compound 1618, (3Z,6Z)-3-(1-tert-butoxycarbonyl-3-indolyl)methylene-6-(2-thenylidene)-2,5-piperazinedione]
- INHIBITION OF PAI-1 (degree of inhibition) ([2]; 12.5 μm, Table 1, first part): 1%
- INHIBITION OF PAI-1 (degree of inhibition) ([2]; 25 μm, Table 1, first part): 3%
- INHIBITION OF PAI-1 (degree of inhibition) ([2]; 50 μm, Table 1, first part): 32%
- INHIBITION OF PAI-1 (degree of inhibition) ([2]; 100 μm, Table 1, first part): 51%
- IC50 ([2]; Table 2): 50 to 100 µM

Structure (SMILES): O=C(NCCCCN1CCc2ccccc2C1)c1ccc(/C=c2\[nH]c(=O)/c(=C/c3ccccc3)[nH]c2=O)cc1 [Compound 5379]
- inhibition at 20 µM ([2]; 20 μM, Table 1, second part): 65%
- IC50 ([2]; Table 1, second part): 15 µM

Structure (SMILES): O=c1[nH]/c(=C\c2c(Cl)cccc2Cl)c(=O)[nH]/c1=C\c1ccoc1 [Compound 1542, (3Z,6Z)-3-(2,6-Dichlorobenzylidene)-6-(3-furylmethylene)-2,5-piperazinedione]
- INHIBITION OF PAI-1 (degree of inhibition) ([2]; 6.25 μm, Table 1, first part): 1%
- INHIBITION OF PAI-1 (degree of inhibition) ([2]; 12.5 μm, Table 1, first part): 1%
- INHIBITION OF PAI-1 (degree of inhibition) ([2]; 25 μm, Table 1, first part): 9%
- INHIBITION OF PAI-1 (degree of inhibition) ([2]; 50 μm, Table 1, first part): 41%
- INHIBITION OF PAI-1 (degree of inhibition) ([2]; 100 μm, Table 1, first part): 75%
- IC50 ([2]; Table 2): 50 to 100 µM

Structure (SMILES): CC(=O)Nc1ccc(/C=c2\[nH]c(=O)/c(=C/c3ccc4c(c3)OCO4)[nH]c2=O)cc1 [Compound 1845, (3Z,6Z)-3-(4-Acetamidobenzylidene)-6-(3,4-methylenedioxybenzylidene)-2,5-piperazinedione]
- INHIBITION OF PAI-1 (degree of inhibition) ([2]; 6.25 μm, Table 1, first part): 53%
- INHIBITION OF PAI-1 (degree of inhibition) ([2]; 12.5 μm, Table 1, first part): 60%
- INHIBITION OF PAI-1 (degree of inhibition) ([2]; 25 μm, Table 1, first part): 49%
- INHIBITION OF PAI-1 (degree of inhibition) ([2]; 50 μm, Table 1, first part): 30%
- INHIBITION OF PAI-1 (degree of inhibition) ([2]; 100 μm, Table 1, first part): 14%

— US5891877A, “Pharmaceutical compounds” (Xenova Limited, priority 1996, dated 1999)
